Measurements as given in US12227802B2, “Nucleotides with a 3′ AOM blocking group” (Illumina Cambridge Limited, priority 2018, dated 2025).

What was measured:
Format in all cases: physicochemical
[1] = Deblocking test of 3′ blocked T nucleotides in solution (Pd/THP for AOM, THP for azidomethyl; HPLC); conditions: 0.1 mM nucleotide, Pd/THP=1/5, 1 mM THP, ethanolamine pH 9.8, room temperature
Experimental: In this example, deblocking tests for 5′-mP 3′-AOM T and the standard 5′-mP 3′-O-azidomethyl T nucleotide were performed individually in a solution unique to each blocking group. Conditions were formulated to mimic Illumina's standard deblock reagent as closely as possible, and follow the same methodology. Concentrations of active deblock reagent, buffer, and nucleoside are kept the same across all tests, but the identity of each component was unique. In this way, the observed difference in rate between the individual deblocking chemistries cannot due to the differences in concentration of formulation.
Nucleotide: 5′-monophosphate 3′-O-azidomethyl T. Active Deblock reagent: tris(hydroxypropyl)phosphine (THP) (1M in 18 mΩ water). (Optional) Additive: Sodium ascorbate (0.1 mM in 18 mΩ water) final conc.=1 mM. Buffer: Ethanolamine pH 9.8 (2M in 18 mΩ water). Quenching reagent: H2O2.
Nucleotide: 5′-monophosphate […]. A stock solution of 3′-AOM T was diluted to 0.1 mM in a 100 mM ethanolamine buffer (pH 9.8), in a glass vial under nitrogen. A stock solution of sodium ascorbate additive was added to a final concentration of 0.1 mM and the solution stirred 5 minutes. To commence the assay, the deblock reagents (Pd/THP=⅕; sodium ascorbate; ethanolamine) were added, to a final concentration of 1 mM THP, to the stirring solution at room temperature. […]

[2] = 3′-O-thiocarbamate (DMTC) deblocking test in solution (HPLC)
Experimental: In this example, deblocking or deblock tests for 5′-mP 3′-DMTC T and the standard 5′-mP 3′-O-azidomethyl T nucleotide were performed individually in a solution unique to each blocking group. Conditions were formulated to mimic Illumina's standard deblock reagent as closely as possible, and follow the same methodology. Concentrations of active deblock reagent, buffer, and nucleoside are kept the same across all tests, but the identity of each component was unique. In this way, the observed difference in rate between the individual deblocking chemistries cannot due to the differences in concentration of formulation.
Each reaction component was formulated individually as a concentrated stock in 18 mΩ water, stored appropriately, and aliquots combined in a specific order given below. Reaction was commenced by addition of the preformulated deblock reagent. […]
In a 3 mL glass vial was added the preformulated buffer solution followed by preformulated additive solution. […] A 40 μL aliquot was then taken, quenching reagent added and analyzed by HPLC as a reference (or t=0 min) peak. […] At specified time points, 40 μL aliquots were taken and quenched immediately with an appropriate quenching reagent, then analyzed by HPLC to determine the amount of deblocked nucleotide that has occurred at these specified time points. […]

[3] = 3′-O-thiocarbamate blocking groups stability testing in incorporation buffer at 65° C. (HPLC); conditions: 9-day testing period (FIG. 6)
Experimental: The stability tests for 5′-mP 3′-DMTC T nucleotide was performed side by side in an incorporation buffer solution with standard 5′-mP 3′-O-azidomethyl T nucleotide.
For both 5′-mP 3′-DMTC T and 5′-mP 3′-O-azidomethyl T, the final solution volume was 1 mL and the final concentrations of the corresponding nucleotides were both 0.1 mM. Other components of the aqueous buffer solution include ethanolamine (EA), ethanolamine HCl, NaCl (100 mM), and EDTA (2.5 mM). The buffer solution has the following concentration: 0.5 M EA Buffer, 0.5 M NaCl, 0.01 M EDTA.
200 μL of 10× Buffer solution was added to a 1.7 mL polypropylene snap lock microtube and diluted with the correct volume of 18 mΩ water. The corresponding nucleoside was then added, the vial was sealed and mixed via inversion, gentle stirring or pumping with a micropipette. A 40 μL aliquot was taken and analyzed by HPLC to act as a starting (or t=0) value. The vials are then placed in a pre-heated heating mantle set to 65° C., covered with a thick layer of aluminum foil and left to heat for one month. 40 μL aliquots was taken periodically (weck 1: once daily. Wecks 2-4: 1 every 2 days) and analyzed by HPLC to determine the percentage starting material and the percentage deblocked (3′-OH) nucleotide in the samples. HPLC analysis was performed by measuring the area of the stating nucleotide peak and the 3′OH peak. […]

SMILES	speed improvement in deblocking rate in solution compared to standard azidomethyl blocking group [1]	deblocking with NaIO4 ([2]; 1 mM NaIO4, pH 6.75 phosphate buffer (FIG. 7))	deblocking rate with Oxone compared to standard azidomethyl blocking group ([2]; 1 mM Oxone, pH 8.65 phosphate buffer (FIG. 7))	stability compared to nucleotide with standard 3′-O-azidomethyl group [3]
C=CCOCOC1C[C@H](n2cc(C)c(=O)[nH]c2=O)O[C@@H]1COP(=O)(O)O (stereo partly shown) [AOM]	10 fold			
Cc1cn([C@H]2CC(OC(=S)N(C)C)[C@@H](COP(=O)(O)O)O2)c(=O)[nH]c1=O (stereo partly shown) [DMTC]		not efficient	superior deblocking rate	improved stability
